The results in this text go back to ChEMBL document CHEMBL6096732 (J Med Chem, 2025).

The nature of data set [1]: AUC (0 to 12 hrs) in male Sprague-Dawley rat at 2 mg/kg, iv measured after 12 hrs by LC-MS/MS analysis. Type of data set: ADME, organism-based. The following applies: in vivo.
A short description of data set [2]: VRT (0 to infinity) in male Sprague-Dawley rat at 20 mg/kg, po measured after 12 hrs by LC-MS/MS analysis. The data set is classed as ADME, organism-based. The following applies: in vivo.
The nature of data set [3]: Toxicity in male C57BL/6 mouse implanted with mouse B16-F10 cells assessed as histopathological changes in kidney at 50 mg/kg, po co-administered with NP-19 as once daily dosage via gavage for 14 days by HandE staining based microscopic analysis. The data set is classed as organism-based. Particulars: in vivo, 336 h, time 14 day.
In data set [4] the test system is 4T1. Description: Induction of DNA damage in mouse 4T1 cells assessed as increase in gamma-H2AX expression at 2 uM incubated for 24 hrs in presence of olaparib by Western blot analysis. The data set is classed as functional, cell-based. On the technique in general: A western blot detects proteins with antibodies after separation by electrophoresis.
In data set [5] the target is T1, Protein deacetylase HDAC6 (Homo sapiens) (UniProt Q9UBN7).
T1 sequence (whole entry): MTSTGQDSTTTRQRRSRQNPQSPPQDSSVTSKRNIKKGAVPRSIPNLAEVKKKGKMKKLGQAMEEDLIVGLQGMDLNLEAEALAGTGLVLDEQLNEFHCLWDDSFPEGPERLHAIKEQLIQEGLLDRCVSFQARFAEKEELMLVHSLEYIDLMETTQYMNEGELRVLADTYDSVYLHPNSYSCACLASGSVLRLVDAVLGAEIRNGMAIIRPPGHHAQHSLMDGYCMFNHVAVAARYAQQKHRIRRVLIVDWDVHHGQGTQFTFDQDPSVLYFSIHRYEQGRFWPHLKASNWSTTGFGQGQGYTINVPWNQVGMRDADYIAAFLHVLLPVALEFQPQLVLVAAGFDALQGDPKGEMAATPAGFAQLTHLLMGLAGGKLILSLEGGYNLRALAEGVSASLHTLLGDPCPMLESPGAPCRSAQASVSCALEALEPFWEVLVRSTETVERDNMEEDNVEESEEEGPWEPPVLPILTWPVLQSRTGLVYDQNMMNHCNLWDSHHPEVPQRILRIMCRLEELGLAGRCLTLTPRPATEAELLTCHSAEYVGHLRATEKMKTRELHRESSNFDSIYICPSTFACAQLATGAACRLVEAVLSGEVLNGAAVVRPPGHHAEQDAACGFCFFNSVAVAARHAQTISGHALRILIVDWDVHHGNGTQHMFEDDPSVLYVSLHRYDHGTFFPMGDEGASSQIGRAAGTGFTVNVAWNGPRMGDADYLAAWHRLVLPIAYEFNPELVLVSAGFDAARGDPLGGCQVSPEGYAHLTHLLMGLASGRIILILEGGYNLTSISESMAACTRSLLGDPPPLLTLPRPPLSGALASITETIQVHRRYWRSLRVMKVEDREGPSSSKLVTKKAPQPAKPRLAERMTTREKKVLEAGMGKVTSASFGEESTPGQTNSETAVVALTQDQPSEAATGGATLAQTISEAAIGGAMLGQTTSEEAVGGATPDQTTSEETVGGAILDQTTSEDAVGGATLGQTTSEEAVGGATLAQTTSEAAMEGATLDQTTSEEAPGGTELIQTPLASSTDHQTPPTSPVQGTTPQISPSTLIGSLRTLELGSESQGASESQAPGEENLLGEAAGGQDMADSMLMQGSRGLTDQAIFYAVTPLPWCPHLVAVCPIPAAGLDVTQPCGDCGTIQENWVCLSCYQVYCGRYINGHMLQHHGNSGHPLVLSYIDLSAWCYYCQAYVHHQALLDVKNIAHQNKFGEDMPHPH
Particulars: dose 500.0 nM, time 3.0 hrs.

Data set [6] in a line: AUMC (0 to infinity) in male Sprague-Dawley rat at 2 mg/kg, iv measured after 12 hrs by LC-MS/MS analysis. Type of data set: ADME, organism-based. The following applies: in vivo.
The next data set addresses Histone deacetylase 3 (Homo sapiens, UniProt O15379). The following applies: dose 500.0 nM, time 3.0 hrs.
The test system of data set [7] is B16-F10. Description: Induction of apoptosis in mouse B16-F10 cells assessed as increase in apoptotic cells at 5 uM incubated for 48 hrs by Annexin V-FITC/PI staining based flow cytometric analysis relative to control. The data set is classed as functional.
Data set [8] can be described thus: Toxicity in female BALB/c mouse model implanted with mouse 4T1 cells assessed as effect on body weight administrated orally as once daily dose via gavage for 14 days. Particulars: in vivo, po, 336 h, time 14 day.
Data set [9] concerns B16-F10. Description: Effect on acetylated H3K56 expression level in mouse B16-F10 cells at 5 to 20 uM incubated for 24 hrs by Western blot analysis. Particulars: dose 5-20 µM. Type of data set: functional, cell-based.
Data set [10] in a line: Apparent volume of distribution in male Sprague-Dawley rat at 20 mg/kg, po measured after 12 hrs by LC-MS/MS analysis. Type of data set: ADME, organism-based. The following applies: in vivo.
Data set [11] deals with 4T1. Description: Antitumor activity against mouse 4T1 cells implanted in female BALB/c mouse model assessed as tumor growth inhibition co-administrated orally with olaparib as once daily dose via gavage for 14 days relative to control. The data set is classed as functional. The following applies: route po; time 14 day.
The subject of data set [12] is B16-F10. Description: Downregulation of PARP1 expression in mouse B16-F10 cells at 2 uM incubated for 24 hrs in presence of olaparib by Western blot analysis. The data set is classed as functional, cell-based.
For data set [13], the system named is 4T1. Description: Effect on acetylated H3K56 expression level in mouse 4T1 cells at 5 to 20 uM incubated for 24 hrs by Western blot analysis. The data set is classed as functional, cell-based. Particulars: dose 5-20 µM.
Data set [14] is described as follows: Oral bioavailability in male Sprague-Dawley rat at 20 mg/kg measured after 12 hrs by LC-MS/MS analysis. The data set is classed as ADME, organism-based. The following applies: in vivo.
Data set [15] in a line: Clearance in male Sprague-Dawley rat at 2 mg/kg, iv measured after 12 hrs by LC-MS/MS analysis. Type of data set: ADME, organism-based. Particulars: in vivo.
Data set [16] addresses T2, Histone deacetylase 3 (Mus musculus) (UniProt O88895).
T2 sequence (whole entry): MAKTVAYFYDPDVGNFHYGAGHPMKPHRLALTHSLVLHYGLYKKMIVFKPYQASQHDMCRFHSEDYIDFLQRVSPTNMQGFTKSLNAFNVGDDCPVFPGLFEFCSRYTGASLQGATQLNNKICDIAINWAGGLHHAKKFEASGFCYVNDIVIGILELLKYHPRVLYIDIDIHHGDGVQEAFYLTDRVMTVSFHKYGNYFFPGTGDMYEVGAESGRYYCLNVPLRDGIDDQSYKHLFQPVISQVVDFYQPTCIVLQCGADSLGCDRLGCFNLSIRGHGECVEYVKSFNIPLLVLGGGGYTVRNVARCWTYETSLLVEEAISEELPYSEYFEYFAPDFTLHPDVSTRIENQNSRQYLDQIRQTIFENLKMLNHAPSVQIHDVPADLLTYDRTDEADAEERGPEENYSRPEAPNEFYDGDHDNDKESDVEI
Description: In vivo inhibition of HDAC3 in male C57BL/6 mouse model implanted with mouse B16-F10 cells assessed as increase in acetylated histone H3 level in tumor at 50 mg/kg, po co-administered with NP-19 as once daily dosage via gavage for 14 days by DAPI staining based immunofluorescence analysis. The data set is classed as functional, organism-based. The following applies: time 14.0 day.

Data set [17] has as its target T2, Histone deacetylase 3 (Mus musculus). Description: In vivo inhibition of HDAC3 in male C57BL/6 mouse model implanted with mouse B16-F10 cells assessed as increase in acetylated histone H3 level at 50 mg/kg, po administered once daily via gavage for 14 days by Western blot analysis. The data set is classed as functional, organism-based. The following applies: time 14.0 day.

The source made the active and inactive calls. The calls are words filed in the database; no cut-off is given here.

Histone deacetylase 3, sequence (O15379 whole entry): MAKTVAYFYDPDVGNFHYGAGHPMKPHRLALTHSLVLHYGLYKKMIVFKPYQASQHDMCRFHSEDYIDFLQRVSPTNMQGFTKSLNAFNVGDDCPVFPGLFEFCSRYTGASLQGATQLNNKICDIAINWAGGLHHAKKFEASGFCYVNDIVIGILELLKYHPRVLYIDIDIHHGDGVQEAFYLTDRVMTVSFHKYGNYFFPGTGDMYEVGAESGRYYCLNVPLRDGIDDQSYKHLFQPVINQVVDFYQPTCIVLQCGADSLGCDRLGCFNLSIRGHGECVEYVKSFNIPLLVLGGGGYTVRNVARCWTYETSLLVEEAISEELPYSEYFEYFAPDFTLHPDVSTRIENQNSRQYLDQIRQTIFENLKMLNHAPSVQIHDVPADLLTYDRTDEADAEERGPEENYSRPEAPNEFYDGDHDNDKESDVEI

For `CCCNNC(=O)c1ccc(Cn2c3ccccc3c3c(-c4ccccn4)nc4ccccc4c32)cc1`, in [1], the AUC(0-t) (as a rule, the area under the concentration-time curve up to a stated or last time point) at 12 h stood at 857 ng·h/mL. This compound also gave a VRT in data set [2] of 12.987 hr2. Further, the Activity result in data set [3] was “Non-toxic”; in the data set on B16-F10 [7], 25%; in [8], “Non-toxic”. The outcome in the data set with 4T1 [4] and in the data set with B16-F10 [12] was Active. Also, the results for the inhibition (in data set [5]; against Histone deacetylase 3) were 17% and 96%, respectively. In addition, the AUMC in [6] came to 630.022 hr.hr.ug/L. For the same compound, the outcome in the data set with B16-F10 [9] and with 4T1 [13] was inactive. In addition, the Vz in [10] was found to be 7.322 L/kg. In addition, the tumour growth inhibition (TGI) (as a rule, the reduction of tumour growth relative to the control group) in the data set on 4T1 [11] was found to be 91%. The bioavailability – broadly, the share of a dose that reaches the circulation, judged against a reference dose that is usually intravenous – in data set [14] was found to be 95.3%. Moreover, in [15], the clearance (commonly a measure of how efficiently the substance is removed, as volume per time) is 39.6 mL/min/kg. Moreover, the inhibition result in data set [16] and in [17] was “Active” throughout.
